Measurements: patent US20100197584A1, “USE OF CURCUMIN TO BLOCK BRAIN TUMOR FORMATION IN MICE” (Research Foundations of the City University of- New York, priority 2007, published 2010)

How the values were obtained:
[1] = system: HOG (human oligodendroglioma) cells; test: Caspase-3/7 assay in HOG cells; format: cell-based; conditions: 20 μM and 50 μM, 48 h or 96 h (FIG. 3)
Description: (§1) Cells. B16F10 (mouse melanoma), GL261 (mouse glioma), HOG (human oligodendroglioma), A549 (human lung cancer), and […] (mouse neuroblastoma) cells were cultured separately in DMEM containing 10% (v/v) fetal bovine serum and 1% (v/v) penicillin-streptomycin (PS) and allowed to grow to 40% confluence in a 96-well plate. Curcumin Treatment. Two hours before drug treatment, the medium in each well was replaced with 200 μl Neurobasal medium supplemented with 2% (v/v) B27 and 1% (v/v) PS (Drug-treatment Medium). A stock solution (40 mM) of curcumin was prepared in sterile dimethyl sulfoxide (DMSO) (Example 1). Through serial dilution of each stock solution in Drug-treatment Medium, the following concentrations were obtained: 20 μM and 50 μM (for caspase 3/7 assays) or 25 μM and 50 μM (for MTT assays). Drug-treatment Medium in each well was aspirated, and a drug solution of each concentration or carrier-containing medium (control) was added to triplicate wells of cells (50 μl/well). […] Additionally, the background absorbance was determined from parallel wells containing only the Drug-treatment Medium plus a particular concentration of the drug (no cells). […] Fluorescence in each well was measured using the FLx 800 plate reader (Bio-Tek Instruments, Winooski, Vt.) set at 485/20 nm excitation and 528/20 nm emission wavelengths and the sensitivity of 70. […]

[2] = system: GL261 (mouse glioma) cells; test: Caspase-3/7 assay in GL261 cells; format: cell-based; conditions: 20 μM and 50 μM, 48 h (FIG. 4)
Description: as §1

[3] = system: B16F10 mouse melanoma cells; test: Brain tumor formation (B16F10 cells injected into right front brain), tail vein curcumin; format: in vivo, C57BL mouse
Description: Generation of Tumors. The mice were given food and water ad libitum and subjected to 12 hour dark/12 hour light cycles. To generate brain tumors in mice, B16F10 mouse melanoma cells or GL261 mouse glioma cells (1000 cells in 5 μl PBS per C57BL mouse) were injected into the right front brain [coordinates: with respect to the Bregma (in mm) AP=2.5; L=−1.1; D=1.5] at the rate of 1 μl per minute using a stereotaxic set-up (KDS Model 310plus infusion-withdrawal syringe pump) (Paxinos, G., and Franklin, K. B. J., The mouse brain in stereotaxic coordinates. 2nd ed. 2001, New York: Academic Press). Before the cell injection, the mouse was anesthetized by injecting (sc) xylazine (10 mg/Kg) and ketamine (100 mg/Kg), the head was shaved, and then the head was immobilized on a Stoelting sterotaxic frame. The mouse was determined to be in deep anesthesia by checking for regular, relaxed respiration and the lack of response to tail/toe pinch before its head was immobilized. The head was cleaned with 70% ethanol and then, using a sterile scalpel, a midline incision was made and subcutaneous muscle and fascia retracted to expose the skull. A hole was made in the skull with a dental drill and the cells injected as described above using a Hamilton syringe fitted to the syringe pump. Under the described condition of anesthesia, the mouse remains unconscious for about 90 min. The total time taken for immobilization of the mouse, exposure of the skull, and injection was about 30 min. Thus, the total time required from the injection of anesthetics to the completion of surgery was less than one hour. After the injection, the hole in the skull was sealed with sterile bone wax and the skin and muscle placed back in place with appropriate 7-mm stainless steel clips (Reflex Skin closure system; Cellpoint Scientific). For wound healing, a topical antibiotic (Triple Antibiotic, containing Polymyxin B, Bacitracin, and Neomycin) was applied and for post-operative care the animal was kept in a warm blanket at 35-37° C. taking precautions to avoid thermal injury. On the first day after surgery (day 2), a sterile, 37° C. solution of physiologic saline was administered (IP) at the dose of 1 ml/100 g body weight. The animals were then caged individually with access to food and water and kept under close monitoring. The mice also received acetaminophen (Tylenol syrup) 1 mg/ml in drinking water daily until they returned to complete normalcy in terms of both behavior and appearance (body weight; reduced locomotion, vocalization, lack of grooming, wound scratching; and signs inflammation at the surgical site).
Curcumin Treatment. The control mice received, aseptically, the carrier (3% DMSO in 200 μl PBS) daily from the next day (day 2), through the tail vein after placing the mouse in a restraining cage without anesthetics. Other mice similarly received 667 μM curcumin in 200 μl of PBS containing 3% DMSO daily from the next day (day 2) for 18 days (through day 19) through the tail vein. Other mice received the same curcumin solution daily from day 4, day 6, day 8 or day 10. One mouse (designated Mouse 2) received a single dose of curcumin (5 μl of 667 μM solution) five minutes after injection of B16F10 cells into the brain, using the same stereotaxic set-up.
Monitoring and Sample Preparation. The effects of brain tumor on movement generally appeared in about two to three weeks. The mice were monitored for disorders in movement using an open field VIDEO monitoring set up (10 min per mouse). Blood was collected from the saphenous vein to test for markers for cancer and cell and organ damage. Additionally, MRI was performed on the mice to monitor the growth and progression of brain tumors. […]

**Q.** `COc1cc(/C=C/C(=O)CC(=O)/C=C/c2ccc(O)c(OC)c2)ccc1O` [curcumin] was tested. Which caspase-3/7 activity [1] did it give?
**A.** The caspase-3/7 activity was “increased”.

**Q.** And the caspase-3/7 activity [2]?
**A.** The caspase-3/7 activity was “increased”.

**Q.** What about the “brain tumor formation and morbidity” value ([3]; B16F10 cells in right frontal lobe, 200 μl of 667 μM curcumin daily, tail vein, day 2 to day 19) of the same compound?
**A.** Its value is “blocked”.

**Q.** And the “tissue disintegration (hematoxylin and eosin staining of brain tissue)” value ([3]; curcumin-injected mice (FIG. 8B))?
**A.** Its value is “completely blocked”.

**Q.** And the movement ([3]; daily curcumin injections, day 20)?
**A.** Its movement is “normal movement”.

**Q.** And the movement and behavior ([3]; daily curcumin injections, days 21, 28, and 39)?
**A.** The movement and behavior was “normal movement and behavior”.

**Q.** What about the “tumors in the right frontal lobe” value ([3]; single dose (5 μl of 667 μM, into brain five minutes after B16F10 cells; Mouse 2)) of the same compound?
**A.** Its value is “Large tumors were observed”.

**Q.** What about the condition of mouse ([3]; single dose (5 μl of 667 μM, into brain five minutes after B16F10 cells; Mouse 2), day 21) of the same compound?
**A.** Its condition of mouse is “hunched up and morbid”.
